Reference: US12653872B2, “Mimotopes of alpha-synuclein and vaccines thereof for the treatment of synucleinopathy” (AC Immune SA, priority 2008, dated 2026)
Blank lines part the entries; values can stand above or below the substance they belong to.

Experiments:
[1] = system: monoclonal antibody specific for human alpha-synuclein at position 115-122 (AFFiRiS3/9, A509); experiment: In vitro inhibition assay (ELISA): peptide competes with binding of the antibody to the coated original epitope; design: species or system mouse; details: for Inhibition: competition code, OD at 40 μg peptide compared to original peptide; for competition in inhibition ELISA: 40 μg peptide, compared to original peptide p4448, FIG. 3
Protocol: 2. In Vitro Inhibition Assay (ELISA)
Different amounts of peptides (concentrations ranging from 40 μg to 0.3 μg (serial dilutions), as indicated in the respective figures) derived from Phage Display were incubated with the monoclonal antibody that was used for the screening procedure. Peptides diminishing subsequent binding of the antibody to the original human alpha-synuclein epitope (amino acids: 115-122 of human alpha-synuclein protein) coated on ELISA plates were considered as inhibiting in this assay.
Weak inhibition means more peptide is required to lower AB binding than with the original epitope; strong inhibition means similar peptide amounts are required for mimotope and original epitope for lowering AB binding. Mimotopes are compared to the original peptide as standard. OD at 40 μg peptide used in the assay is used to calculate the competition capacity compared to original peptide.

[2] = system: injected peptide (peptide-BSA conjugate); experiment: Mimotope-KLH vaccination of mice: serum titer against injected peptide (ELISA); assay type: in vivo, C57/Bl6 mice; details: for immune response against injected peptide: C57/Bl6 mice, 30 μg peptide-KLH s.c., alum, repeated vaccination; for titers upon vaccination of mice: FIG. 2 legend
Protocol: (§1) Inhibiting as well as non-inhibiting peptides were coupled to KLH and injected into mice (wildtype C57/Bl6 mice; subcutaneous injection into the flank) together with an appropriate adjuvant (aluminium hydroxide). Animals were vaccinated 4-6 times in biweekly intervals and sera were taken biweekly as well. Titers to injected peptides as well as to an irrelevant peptide were determined with every serum. Titers against the recombinant human alpha-synuclein protein and recombinant human beta-synuclein were determined starting with Serum 3 respectively. Pooled sera were tested against the original human alpha-synuclein epitope (aa115-122). In general sera were analysed by reaction against peptides coupled to Bovine Serum Albumin (BSA) and recombinant full length proteins which were immobilised on ELISA plates. Titers were determined using anti mouse IgG specific antibodies. For detailed results see FIGS. 4A, 4B, 5A and 5B.
(§2) Female C57/Bl6 mice, 5-6 mice per group, were subcutaneously immunized with 30 μg peptide coupled to KLH. Control groups were administered p4448-KLH conjugate. As adjuvant alum was used (always 1 mg per mouse). […] The in vitro ELISA assay to determine the antibody titer was performed with sera of single mice or pooled sera (see FIGS. 5A and 5B) after each vaccination in a two week interval (see FIGS. 4A, 4B, 5A and 5B, respectively). The wells of the ELISA plate were coated with mimotope-BSA conjugate and an irrelevant peptide-BSA conjugate (negative control). The positive control was performed by reaction of the parental antibody with the respective mimotope-BSA conjugate. The detection was performed with anti-mouse IgG. Additionally, recombinant proteins were immobilised on ELISA plates and sera reacted accordingly.

irrelevant peptide p1253 = experiment: Mimotope-KLH vaccination of mice: serum titer against irrelevant peptide (ELISA); assay type: in vivo; details: C57/Bl6 mice, alum
Protocol: as §1, §2

[3] = system: monoclonal antibody specific for human alpha-synuclein at position 115-122 (AFFiRiS3/9, A509); experiment: In vitro binding assay (ELISA): peptide-BSA on plate, incubated with the screening monoclonal antibody; design: species or system mouse; details: FIG. 1 and FIG. 2
From the text: 1. In Vitro Binding Assay (ELISA)

[4] = system: recombinant human alpha-synuclein protein; experiment: Mimotope-KLH vaccination of mice: serum titer against recombinant alpha-synuclein (ELISA); assay type: in vivo, C57/Bl6 mice; details: pooled sera after 4 vaccinations; FIG. 5B
Protocol: as §1, §2

[5] = system: recombinant human beta-synuclein; experiment: Mimotope-KLH vaccination of mice: serum titer against recombinant beta-synuclein (ELISA); assay type: in vivo, C57/Bl6 mice; details: pooled sera after 4 vaccinations, FIG. 5B
Protocol: as §1, §2

[6] = system: human a-syn on brain sections of mice overexpressing human a-syn; experiment: In situ testing: immunohistochemistry with mimotope-induced sera on mouse brain sections; details: for potential to induce a-syn specific antibodies: vaccines based on the peptide
Protocol: Selected sera eliciting an a-syn cross reactivity were also tested for the ability to detect human a-syn on mouse brain sections in situ. For detailed results see FIGS. 6A, 6B and 6C.
Mimotopes eliciting an a-syn specific immune response can also detect a-syn immunoreactive inclusions in transgenic mouse brain tissue. As depicted in FIGS. 6A, 6B and 6C, sera derived from mimotope vaccinated animals are able to stain a-syn positive structures present on mouse brain sections from animals overexpressing human a-syn. Briefly, sera positive for human a-syn reactivity in ELISA have been used for immunohistochemistry (IHC). Paraffin embedded […] sections of mouse brain, mounted on Superfrost Plus glass slides, were subjected to IHC. Sections were incubated with sera (dilution 1:100 and 1:400 in PBS) and subsequently stained according to standard protocols for immunohistochemistry using VECTASTAIN™ ABC Systems (which is an Avidin-Biotin Complex Immunohistochemical Staining Kit from Vector Laboratories), DAB and MOM blocking (all reactions have been performed using commercially available reagents obtained from Vector labs respectively and have been performed according to manufacturer's protocols). Counterstaining was performed with Haematoxylin. Slides were mounted in Entellan and subsequently documented using conventional brightfield microscopy. A monoclonal antibody specific for human a-syn (LB509, Covance) has been used as a positive control for synuclein detection at a final dilution of 1/250.

Substance: CDAPVTPDT [p4563]
Inhibition [1]: 1 (Weaker than original epitope (OD of 40 μg peptide below 5 times of original peptide))

Substance: CDAPVYPDG [p4570]
Inhibition [1]: 1 (Weaker than original epitope (OD of 40 μg peptide below 5 times of original peptide))

Substance: CDHPVHPDS [p4554]
Inhibition [1]: 1 (Weaker than original epitope (OD of 40 μg peptide below 5 times of original peptide))

Substance: CDHPVTPDR [p4559]
Inhibition [1]: 1 (Weaker than original epitope (OD of 40 μg peptide below 5 times of original peptide))

Substance: CDLPVTPDR [p4566]
Inhibition [1]: 1 (Weaker than original epitope (OD of 40 μg peptide below 5 times of original peptide))

Substance: CDMPVDPDN [p4448, reference compound]
immune response against injected peptide [2]: elicited immune responses against the injected peptide
immune response against unrelated sequence p1253 (irrelevant peptide p1253): failed to induce an unspecific immune response
binding to / detection by the monoclonal antibody in ELISA [3]: are detected by the antibody
reactivity of induced sera with alpha-synuclein [4]: show titers against alpha-synuclein
reactivity of induced sera with beta-synuclein [5]: detect alpha and beta-synuclein
reactivity of induced sera with beta-synuclein ([5]; listed as original epitope): also detected the full length beta-synuclein protein

binding to / detection by the monoclonal antibody in ELISA [3]: are not detected
Substance: CDMPVDPGS [p4450]

Substance: CDMPVLPD [p4457]
reactivity of induced sera with alpha-synuclein [4]: show titers against alpha-synuclein

Substance: CDMPVLPDG [p4497]
Inhibition [1]: 1 (Weaker than original epitope (OD of 40 μg peptide below 5 times of original peptide))

Substance: CDMPVLPDN [p4463]
reactivity of induced sera with alpha-synuclein [4]: show titers against alpha-synuclein
Inhibition [1]: 2 (strong inhibition (as original epitope; OD of 40 μg peptide below 2 times of original peptide))

Substance: CDMPVSPDR [p4555]
Inhibition [1]: 1 (Weaker than original epitope (OD of 40 μg peptide below 5 times of original peptide))

Substance: CDMPVTPDT [p4562]
potential to induce a-syn specific antibodies [6]: potential to induce a-syn specific antibodies
Inhibition [1]: 2 (strong inhibition (as original epitope; OD of 40 μg peptide below 2 times of original peptide))

Substance: CDMPVWPDG [p4569]
Inhibition [1]: 1 (Weaker than original epitope (OD of 40 μg peptide below 5 times of original peptide))

Substance: CDNPVHPEN [p4492]
competition in inhibition ELISA [1]: do not show competition

Substance: CDQPVLPD [p4456]
immune response against injected peptide [2]: elicited immune responses against the injected peptide
potential to induce a-syn specific antibodies [6]: potential to induce a-syn specific antibodies
immune response against unrelated sequence p1253 (irrelevant peptide p1253): failed to induce an unspecific immune response

Substance: CDQPVLPDG [p4496]
Inhibition [1]: 1 (Weaker than original epitope (OD of 40 μg peptide below 5 times of original peptide))

Substance: CDQPVLPDN [p4462]
Inhibition [1]: 2 (strong inhibition (as original epitope; OD of 40 μg peptide below 2 times of original peptide))

Substance: CDQPVYPDI [p4557]
titers upon vaccination of mice [2]: > 1/20000
binding to / detection by the monoclonal antibody in ELISA [3]: weaker binding than the original peptide p4448
Inhibition [1]: 1 (Weaker than original epitope (OD of 40 μg peptide below 5 times of original peptide))

Substance: CDRPVAPEG [p4553]
titers upon vaccination of mice [2]: > 1/20000
binding to / detection by the monoclonal antibody in ELISA [3]: strong binding

Substance: CDRPVQPDR [p4571]
Inhibition [1]: 1 (Weaker than original epitope (OD of 40 μg peptide below 5 times of original peptide))

Substance: CDRPVTPDN [p4491]
competition in inhibition ELISA [1]: show similar competition as the original peptide p4448
Inhibition [1]: 7

Substance: CDRPVYPDI [p4558]
Inhibition [1]: 2 (strong inhibition (as original epitope; OD of 40 μg peptide below 2 times of original peptide))

Substance: CDSPVHPDT [p4567]
Inhibition [1]: 1 (Weaker than original epitope (OD of 40 μg peptide below 5 times of original peptide))

Substance: CDSPVLPDG [p4498]
a-syn staining by induced serum in immunohistochemistry ([6]; murine hippocampus, human a-syn transgenic, sera diluted 1:100 and 1:400, FIG. 6C): specific a-syn staining similar to the staining present in FIG. 6A
potential to induce a-syn specific antibodies [6]: potential to induce a-syn specific antibodies
Inhibition [1]: 1 (Weaker than original epitope (OD of 40 μg peptide below 5 times of original peptide))

Substance: CDSPVLPDN [p4464]
Inhibition [1]: 2 (strong inhibition (as original epitope; OD of 40 μg peptide below 2 times of original peptide))

Substance: CDSPVVPDN [p4564]
Inhibition [1]: 1 (Weaker than original epitope (OD of 40 μg peptide below 5 times of original peptide))

Substance: CDSPVWAEN [p4466]
immune response against injected peptide [2]: elicited immune responses against the injected peptide
immune response against unrelated sequence p1253 (irrelevant peptide p1253): failed to induce an unspecific immune response

Substance: CDTPVIPDN [p4495]
Inhibition [1]: 1 (Weaker than original epitope (OD of 40 μg peptide below 5 times of original peptide))

Substance: CDTPVLAEN [p4467]
immune response against injected peptide [2]: elicited immune responses against the injected peptide
immune response against unrelated sequence p1253 (irrelevant peptide p1253): failed to induce an unspecific immune response

Substance: CDTPVLPDS [p4561]
Inhibition [1]: 2 (strong inhibition (as original epitope; OD of 40 μg peptide below 2 times of original peptide))

Substance: CDTPVYPDN [p4494]
Inhibition [1]: 2 (strong inhibition (as original epitope; OD of 40 μg peptide below 2 times of original peptide))

Substance: CDVPVLPDN [p4493]
Inhibition [1]: 2 (strong inhibition (as original epitope; OD of 40 μg peptide below 2 times of original peptide))

Substance: CEMPVDPDN [P4648]
Inhibition [1]: 1 (Weaker than original epitope (OD of 40 μg peptide below 5 times of original peptide))

Substance: CHDRPVTPDN [p4490]
competition in inhibition ELISA [1]: show similar competition as the original peptide p4448
Inhibition [1]: 2 (strong inhibition (as original epitope; OD of 40 μg peptide below 2 times of original peptide))

Substance: CYDRPVQPDR [p4572]
Inhibition [1]: 1 (Weaker than original epitope (OD of 40 μg peptide below 5 times of original peptide))

Substance: DMPVDPDN
reactivity of induced sera with beta-synuclein [5]: did not distinguish between the two recombinant synuclein proteins

binding to / detection by the monoclonal antibody in ELISA [3]: are detected by the antibody
Substance: DMPVDPDNC [p4449]

binding to / detection by the monoclonal antibody in ELISA [3]: are not detected
Substance: DMPVDPGSC [p4451]

Substance: DMPVLPDC [p4641]
Inhibition [1]: 2 (strong inhibition (as original epitope; OD of 40 μg peptide below 2 times of original peptide))

Substance: DQPVLPDC [p4640]
Inhibition [1]: 2 (strong inhibition (as original epitope; OD of 40 μg peptide below 2 times of original peptide))

binding to / detection by the monoclonal antibody in ELISA [3]: are not detected
Substance: p4447: Human beta-syn (Full length; NCBI Acc. No. NP_001001502)
